Results: US7919488B2, “Therapeutic compounds” (Pfizer Inc., priority 2006, dated 2011)

Experiments:
Type in all cases: biochemical
[1] = target: T1, recombinant CYP3A4-b5 enzyme (Baculosomes®) (Homo sapiens, UniProt P08684); experiment: Kiapp against recombinant CYP3A4 enzyme (Baculosomes), BFC substrate; settings: recombinant CYP3A4-b5 (Invitrogen), 5 uM BFC, 200 uM NADPH, pre-incubation at least 30 minutes, pH 7.0, room temperature
T1 construct: purchased Invitrogen (Carlsbad, Calif.)
How it was run: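 Recombinant CYP3A4-b5 Baculosomes were run in 100 mM sodium phosphate pH 7.0 with 5 mM TCEP and 2% DMF at room temperature, with ~30 min pre-incubation. The reaction was started with NADPH (200 uM) and BFC (5 uM), both final. Kiapp came from initial fluorescence velocities over the first 5 min across inhibitor concentrations.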

CYP3A4 [2] = target: T2, CYP3A4 (Homo sapiens, UniProt P08684); experiment: IC50 against CYP3A4 by inhibition of testosterone metabolism in human liver microsomes; settings: 0.1 mg/mL human liver microsomes, 25 μM testosterone, 1 mM NADPH, 6-β-OH-testosterone production, eight minutes; read-out: IC50, μM (HLM, testosterone)
T2 construct: 0.1 mg/mL human liver microsomes; from tissue; host or cells: human liver microsomes
T2 sequence (P08684 whole entry): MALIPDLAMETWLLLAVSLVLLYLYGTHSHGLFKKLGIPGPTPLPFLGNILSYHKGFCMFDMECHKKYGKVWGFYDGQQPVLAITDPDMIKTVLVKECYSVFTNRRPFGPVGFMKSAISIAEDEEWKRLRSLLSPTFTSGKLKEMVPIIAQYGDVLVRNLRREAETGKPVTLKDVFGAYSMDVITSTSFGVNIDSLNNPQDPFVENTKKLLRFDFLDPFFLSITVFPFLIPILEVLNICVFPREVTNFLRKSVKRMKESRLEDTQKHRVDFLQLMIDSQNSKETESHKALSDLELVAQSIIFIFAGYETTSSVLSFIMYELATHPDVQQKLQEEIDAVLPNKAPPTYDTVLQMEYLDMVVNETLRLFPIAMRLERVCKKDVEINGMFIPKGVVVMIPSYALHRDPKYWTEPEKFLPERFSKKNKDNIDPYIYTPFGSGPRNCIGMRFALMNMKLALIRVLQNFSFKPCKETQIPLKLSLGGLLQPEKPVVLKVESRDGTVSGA
How it was run: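 Testosterone used as substrate, incubated for eight minutes. 6-β-OH-testosterone formation quantified by LC-MS/MS (MRM) as peak area ratio to internal standard against a metabolite standard curve. IC50 derived from inhibition of this metabolism.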

[3] = target: T3, recombinant CYP3A4+b5 enzyme (Supersomes®) (Homo sapiens, UniProt P08684); experiment: Kiapp against recombinant CYP3A4 enzyme (Supersomes), BFC substrate; settings: recombinant CYP3A4+b5 (BD Biosciences), 5 uM BFC, 200 uM NADPH, pre-incubation at least 30 minutes, pH 7.0, room temperature
T3 construct: purchased BD Biosciences (Woburn, Mass.)
T3 sequence (P08684 2-503 limits assumed): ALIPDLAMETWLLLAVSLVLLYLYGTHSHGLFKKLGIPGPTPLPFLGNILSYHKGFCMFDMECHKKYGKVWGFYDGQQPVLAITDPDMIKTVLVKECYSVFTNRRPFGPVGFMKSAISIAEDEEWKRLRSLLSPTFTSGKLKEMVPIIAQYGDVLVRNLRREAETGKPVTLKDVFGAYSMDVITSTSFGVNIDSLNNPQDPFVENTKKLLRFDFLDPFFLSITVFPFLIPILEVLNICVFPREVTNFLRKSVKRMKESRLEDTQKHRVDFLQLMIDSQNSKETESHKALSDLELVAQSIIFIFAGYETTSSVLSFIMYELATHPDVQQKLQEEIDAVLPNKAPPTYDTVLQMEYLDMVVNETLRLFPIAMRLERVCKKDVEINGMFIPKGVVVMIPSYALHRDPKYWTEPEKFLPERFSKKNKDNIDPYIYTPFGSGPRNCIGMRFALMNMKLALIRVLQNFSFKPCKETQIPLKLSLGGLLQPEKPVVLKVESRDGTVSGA
Method: 1. Determination of Compound Kiapp
A determination of the Kiapp of the compounds of the invention against recombinant CYP3A4 enzyme was performed as follows. The assay was performed in a 100 mM sodium phosphate buffer pH 7.0, 5 mM TCEP and containing 2% dimethylformamide (final concentration) upon addition of substrate and inhibitor. A typical reaction for the determination of Kiapp values was carried at room temperature in a solid black Costar u-bottom 96-well polypropylene plate. In each well, recombinant CYP3A4 enzyme (5.5 nM or 8 nM, final concentration depending on the commercial source of the enzyme) was pre-incubated in the presence of the inhibitor for at least 30 minutes in the assay buffer. When pre-incubation was completed (˜30 min), the reaction was initiated by adding NADPH (200 uM, final concentration), and 7-benzyloxy-4-(trifluoromethyl)-coumarin (BFC) (5 uM, final concentration). The oxidation of the coumarin substrate was recorded by a 96-well plate reader POLARstar (BMG LABTECH, Offenburg, Germany).
The initial reaction velocities were measured during the first 5 min of the reaction when the release of the fluorescent product is linear with time, in the absence and in the presence of various concentrations of inhibitors. For non-partial & partial inhibitors, the Kiapp values were determined by using the equation for tight-binding inhibitor developed by Morrison, J F (Morrison J F. Biochim Biophys Acta. 1969, 185: 269-86) and by Szedlaseck S E et al. (Szedlascek, S. E., Ostafe, V., Serban, M., and Vlad, M. O. Biochem. J. 1988, 254:311-312), respectively.
The fluorescent substrate BFC was purchased from Sigma (St Louis, Mo.). Two commercial sources of recombinant enzymes were used in this study: recombinant CYP3A4-b5 enzyme (Baculosomes®) was purchased from Invitrogen (Carlsbad, Calif.) and the recombinant CYP3A4+b5 enzyme (Supersomes®) was purchased from BD Biosciences (Woburn, Mass.).

CYP3A4 [4] = target: T2, CYP3A4; experiment: IC50 against CYP3A4 by inhibition of midazolam metabolism in human liver microsomes; settings: 0.1 mg/mL human liver microsomes, 2 μM midazolam, 1 mM NADPH, 1-hydroxymidazolam production, eight minutes; read-out: IC50, μM (HLM, midazolam)
How it was run: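 Human liver microsomes (0.1 mg/mL) incubated 8 min with 2 μM midazolam and 1 mM NADPH in 100 mM potassium phosphate, pH 7.4. 1-Hydroxymidazolam quantified by LC-MS/MS (MRM) as peak area ratio to internal standard against a metabolite standard curve.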

T1 sequence (P08684 whole entry): as the sequence (P08684 whole entry) above

| SMILES | Ki [1] [µM] | IC50 (CYP3A4 [2]) [µM] | Ki [3] [µM] | IC50 (CYP3A4 [4]) [µM] |
| --- | --- | --- | --- | --- |
| COC(=O)N[C@H]1CCN(C(=O)Cn2nc(-c3ccncc3)cc2Cc2ccc(F)cc2)C1 [Example 130, methyl [(3S)-1-{[5-(4-fluorobenzyl)-3-pyridin-4-yl-1H-pyrazol-1-yl]acetyl}pyrrolidin-3-yl]carbamate] | 0.0276 | 0.032 | 0.00618 | 0.015 |
| CS(=O)(=O)CCN1CCN(C(=O)Cn2nc(-c3ccncc3)cc2Cc2ccc(F)cc2)CC1 [Example 131, 1-{[5-(4-fluorobenzyl)-3-pyridin-4-yl-1H-pyrazol-1-yl]acetyl}-4-[2-(methylsulfonyl)ethyl] piperazine] | 0.0111 | 0.037 | 0.00283 | 0.0139 |
| CC(C)(CN1CCOCC1)NC(=O)Cn1nc(-c2ccnnc2)cc1Cc1ccc(F)cc1 [Example 133, N-(1,1-dimethyl-2-morpholin-4-ylethyl)-2-[5-(4-fluorobenzyl)-3-pyridazin-4-yl-1H-pyrazol-1-yl]acetamide] | 0.21 | 0.044 | 0.174 | 0.083 |
| CN(C(=O)Cn1nc(-c2ccncc2)cc1Cc1ccc(F)cc1)[C@H]1CC[C@@H](O)CC1 [Example 135, 2-[5-(4-fluorobenzyl)-3-pyridin-4-yl-1H-pyrazol-1-yl]-N-(cis-4-hydroxycyclohexyl)-N-methylacetamide] | 0.108 | 0.021 | 0.0358 | 0.00867 |

Next, values leading:

| Ki [1] [µM] | IC50 (CYP3A4 [2]) [µM] | Ki [3] [µM] | IC50 (CYP3A4 [4]) [µM] | SMILES |
| --- | --- | --- | --- | --- |
| 0.0996 | 0.04 | 0.0716 | 0.023 | CS(=O)(=O)C1CCN(C(=O)Cn2nc(-c3ccncc3)cc2Cc2ccc(F)cc2)C1 (centres unmarked) [Example 132, 4-[5-(4-fluorobenzyl)-1-{2-[3-(methylsulfonyl)-pyrrolidin-1-yl]-2-oxoethyl}-1H-pyrazol-3-yl]pyridine] |
| 0.131 | 0.051 | 0.0168 | 0.0169 | CC(=O)N1CCN(C(=O)Cn2nc(-c3ccncc3)cc2Cc2ccc(F)cc2)CC1 [Example 134, 1-acetyl-4-{[5-(4-fluorobenzyl)-3-pyridin-4-yl-1H-pyrazol-1-yl]acetyl}piperazine] |
| 0.0291 | 0.023 | 0.0119 | < 0.00833 | O=C(Cn1nc(-c2ccncc2)cc1Cc1ccc(F)cc1)N1CCC(N2CCCCC2=O)CC1 [Example 136, 1′-{[5-(4-fluorobenzyl)-3-pyridin-4-yl-1H-pyrazol-1-yl]acetyl}-1,4′-bipiperidin-2-one] |
| 0.0129 | 0.031 | 0.0036 | 0.0101 | O=C(Cn1nc(-c2ccncc2)cc1Cc1ccc(F)cc1)N1CCC(N2CCOCC2)CC1 [Example 137, 4-(1-{[5-(4-fluorobenzyl)-3-pyridin-4-yl-1H-pyrazol-1-yl]acetyl}piperidin-4-yl)morpholine] |
